Data from patent US20080234368A9, “Therapeutic compositions and methods of use” (Trustees of Dartmouth College, priority 1998, published 2008).

Legend:
[1] = system: MCF-7 breast carcinoma cells; assay: Suppression of thymidine incorporation, dose-response (FIG. 13); format: cell-based, human; settings: MCF-7 with 17-β-estradiol, 72 h; oleanolic acid statement at concentrations of 1 μM or less
Protocol: (§1) Inhibitors of cell proliferation are known to be useful chemopreventive and chemotherapeutic agents. CDDO was tested against a wide variety of cells derived from highly aggressive leukemias and carcinomas, as well as from non-neoplastic tissues. NRP-152 cells were grown as described in Danielpour et al., 1994. MCF-7 cells were grown in phenol red-free RPMI 1640/10% charcoal-stripped FBS with added 17-β-estradiol (10 μM). Triterpenoids were added at the time of plating, and 72 h later ^3H-thymidine (1 μCi/well) was added for the final 2 h of incubation. Incorporation of thymidine was measured after cells were precipitated with TCA (10%), washed, and solubilized. The symbols used in FIG. 13 are CDDO, ▪; TP-82, ◯; and oleanolic acid; ●.

[2] = system: NRP-152 non-malignant prostate epithelium cells; assay: as above; format: cell-based, rat; settings: NRP-152, 72 h; oleanolic acid statement at concentrations of 1 μM or less
Protocol: as §1

[3] = system: IFN-γ-induced NO production in mouse macrophages; assay: Inhibition of IFN-γ induced NO production in mouse macrophages; format: cell-based; settings: Mus musculus, Macrophage; 4 ng/mL IFN-γ, 48 hours, nitrite by Griess reaction; average of two separate experiments; read-out: IC50 for Inhibition of IFN-γ-Induced NO Production in Mouse Macrophages
Protocol: The inhibitory activities of these compounds and dexamethasone on IFN-γ induced NO production in mouse macrophages is shown below in Table 1. The following procedure for the assay ws used. Macrophages were harvested from female mice injected intraperitoneally four days previously with 4% thioglycollate. These cells were seeded in 96-well tissue culture plates and incubated with 4 ng/mL IFN-γ in the presence or absence of inhibitory test compounds. After 48 hours NO production (measured as nitrite by the Griess reaction) was determined. Full details of the assay are given in Ding et al., 1990; Bogdan et al., 1992.

[4] = system: LCDB acute myelogenous leukemia cell line; assay: Monocytic differentiation, α-naphthyl acetate esterase staining; format: cell-based, human; settings: TGF-β1 2.5 ng/ml, 48 h
Protocol: CDDO induces monocytic differentiation in the poorly differentiated LCDB acute myelogenous leukemia cell line, derived from a chemotherapy-resistant patient at the NCI Pediatric Oncology Branch. FIG. 11 illustrates LCDB cells seeded in RPMI 1640/2% FBS, either alone (11A), with 2.5 ng/ml TGF-β1 (11B), with 10^−8 M CDDO (11C), or with both TGF-β1 and CDDO (11D). After 48 h, cytospin slide preparations were made and stained for α-naphthyl acetate esterase activity (kit from Sigma). PC12 cells were cultured for 5 days in gridded dishes in DMEM/10% FBS and 5% horse serum (Smith et al., 1997), either alone (11E), with 100 ng/ml 7S NGF (11F), with 10^−6 M CDDO (11G), or with both NGF and CDDO (11H). […] Methods for quantitative image analysis of size of cells and neurites have been described (De 1a Torre et al., 1997). Control cells in FIG. 11E are approximately 10 μm in diameter. 3T3-L1 cells were grown to confluency in DMEM/5% calf serum, and then treated once with CDDO in DMEM/10% FBS (FIG. 12A) or with CDDO and/or LG100268 in DMEM/10% FBS (FIG. 12B). Every two days thereafter, medium was changed to DMEM/10% FBS, without added CDD0 or LG100268. Cells were harvested on day 8 (FIG. 12A) or day 6 (FIG. 12B), and GPDH was measured in lysates, using a standard assay for consumption of NADH at 340 nm (Wise and Green, 1979).

Molecule | suppressing thymidine incorporation [1] | suppressing thymidine incorporation [2] | IC50 [3] [nM] | induction of α-naphthyl esterase activity (monocytic differentiation) [4]
3,11-dioxoolean-1,9-dien-28oic acid [TP-82] | markedly less active | markedly less active |  | 
C[C@@H]1C[C@H]2[C@@H]3CCC4=CC(=O)C=C[C@]4(C)[C@@]3(F)[C@@H](O)C[C@]2(C)[C@@]1(O)C(=O)CO [dexamethasone, reference compound] |  |  | 1 | 
TGF-01: transforming growth factor-β1 |  |  |  | induced x-naphthyl esterase activity
CC1(C)CC[C@]2(C(=O)O)CC[C@]3(C)C(=CC[C@@H]4[C@@]5(C)CC[C@H](O)C(C)(C)[C@@H]5CC[C@]43C)[C@@H]2C1 [oleanolic acid, reference compound] | virtually without activity | virtually without activity |  | 
